Like-named read-outs stand apart in the source and are kept apart here.
What was measured:
[1] = test system: KB (human epidermoid carcinoma); parameters: method as in PMID 30153471, PMID 33999337; conditions: MTT; results based on previous work; read-out: IC50 ± SEM, KB; cited from earlier work
[2] = test system: four cancer cells (KB, HeLa S3, MCF-7, and Hep G2); conditions: HeLa S3, MCF-7, Hep G2, earlier studies, read-out: IC50 values against four cancer cells; cited from earlier work
[3] = test system: HT-29 (human colon adenocarcinoma); parameters: method as in PMID 30153471, PMID 33999337; key to IC50 ± SEM, HT-29: IC50 ≤ 10 µM = good cytotoxicity; 10 µM < IC50 ≤ 30 µM = weak cytotoxicity; inactive (IC50 > 30 µM); conditions: MTT, results based on previous work, cited from earlier work
[4] = test system: MCF-7 (human breast adenocarcinoma); parameters: method as in PMID 30153471, PMID 33999337; conditions: MTT; results based on previous work; read-out: IC50 ± SEM, MCF-7; cited from earlier work
[5] = test system: HeLa S3 (human cervical carcinoma); parameters: method as in PMID 30153471, PMID 33999337; conditions: MTT; results based on previous work; read-out: IC50 ± SEM, HeLa S3; cited from earlier work
[6] = molecular target: T1, COX-2 (human recombinant PGHS-2) (Homo sapiens, UniProt P35354); experiment: COX-2 enzyme inhibition assay (PGE2 ELISA); assay type: biochemical; conditions: mean ± SD (n = 4)
T1 construct: purchased Cayman Chemical Co., Ann Arbor, MI, USA
T1 sequence (P35354 18-604): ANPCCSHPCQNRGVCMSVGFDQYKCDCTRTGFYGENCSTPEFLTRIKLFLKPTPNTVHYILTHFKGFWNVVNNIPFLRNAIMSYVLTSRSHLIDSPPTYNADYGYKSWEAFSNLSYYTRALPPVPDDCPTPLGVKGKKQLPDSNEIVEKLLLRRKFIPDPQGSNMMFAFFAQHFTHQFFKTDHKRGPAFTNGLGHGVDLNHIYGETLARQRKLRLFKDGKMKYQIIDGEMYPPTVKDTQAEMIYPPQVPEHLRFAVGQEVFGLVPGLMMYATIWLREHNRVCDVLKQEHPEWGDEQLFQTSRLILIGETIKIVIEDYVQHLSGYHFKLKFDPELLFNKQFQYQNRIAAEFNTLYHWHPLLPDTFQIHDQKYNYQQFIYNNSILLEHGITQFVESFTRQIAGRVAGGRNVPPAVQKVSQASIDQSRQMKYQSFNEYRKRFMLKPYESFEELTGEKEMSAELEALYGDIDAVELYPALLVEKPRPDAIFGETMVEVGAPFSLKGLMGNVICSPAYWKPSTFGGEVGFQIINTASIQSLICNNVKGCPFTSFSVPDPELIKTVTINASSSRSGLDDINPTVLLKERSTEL
Method: (§1) The anti-inflammatory effects of the isolated compounds were also screened on COX-1 and COX-2 enzymes inhibition at a final concentration of 20 µM.
(§2) Purified PGHS-1 from ram seminal vesicles for COX-1 and human recombinant PGHS-2 for COX-2 (Cayman Chemical Co., Ann Arbor, MI, USA) were used for the COX inhibition assays. Experiments were performed in a 96-well plate format, as previously described. Briefly, the incubation mixture contained 180 µL of 0.1 M TRIS/HCl-buffer pH 8.0 (Roth, Karlsruhe, Germany), 50 µM Na2EDTA (only for COX-2, Titriplex III, Merck, Darmstadt, Germany), 18 mM L-epinepherine bitartrate (Fluka, Buchs, Switzerland), 5 µM porcine hematin (MP Biomedicals LLC, Solon, OH, USA), and COX-1 or COX-2 enzymes (0.2 U/well). Ten microliters of tested compounds (dissolved in DMSO with a final concentration of 20 µM) was added and the mixture was pre-incubated for 5 min at room temperature. Thereafter, 10 µL of 5 µM arachidonic acid (Ann Arbor, Michigan USA) was added to the mixture and incubated for 20 min at 37 °C. The reaction was subsequently stopped by adding 10 µL of 10% (v/v) formic acid. The concentration of PGE2 generated in the reaction was quantitatively measured by a competitive PGE2 ELISA kit (Enzo Life Sciences Inc., Farmingdale, NY, USA) according to the manufacturer’s protocol and previous procedure. The absorbance at 405 nm was measured using a Hidex Sense Microplate Reader (Hidex, Turku, Finland). […] The assays were performed in duplicates and repeated in two independent experiments.

[7] = molecular target: T2, COX-1 (purified PGHS-1 from ram seminal vesicles) (Ovis aries, UniProt P05979); experiment: COX-1 enzyme inhibition assay (PGE2 ELISA); assay type: biochemical; conditions: mean ± SD (n = 4)
T2 construct: Purified PGHS-1 from ram seminal vesicles for COX-1; purchased Cayman Chemical Co., Ann Arbor, MI, USA; host or cells: ram seminal vesicles (tissue-purified)
T2 sequence (P05979 25-600): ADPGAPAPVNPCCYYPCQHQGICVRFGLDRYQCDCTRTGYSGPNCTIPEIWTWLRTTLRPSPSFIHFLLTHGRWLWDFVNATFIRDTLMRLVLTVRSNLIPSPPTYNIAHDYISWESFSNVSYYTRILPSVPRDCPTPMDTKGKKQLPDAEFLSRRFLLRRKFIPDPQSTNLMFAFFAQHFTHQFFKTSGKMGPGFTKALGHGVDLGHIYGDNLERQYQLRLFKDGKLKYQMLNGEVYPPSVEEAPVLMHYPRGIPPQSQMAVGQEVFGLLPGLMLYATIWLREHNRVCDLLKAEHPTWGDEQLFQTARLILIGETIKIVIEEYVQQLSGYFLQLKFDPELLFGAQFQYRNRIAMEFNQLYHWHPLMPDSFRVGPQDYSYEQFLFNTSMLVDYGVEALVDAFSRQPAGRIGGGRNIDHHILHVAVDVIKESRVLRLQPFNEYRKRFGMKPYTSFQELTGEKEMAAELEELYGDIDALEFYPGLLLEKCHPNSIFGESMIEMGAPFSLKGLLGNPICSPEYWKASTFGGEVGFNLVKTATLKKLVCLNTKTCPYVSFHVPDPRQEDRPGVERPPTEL
Method: as §1, §2

[8] = test system: Hep G2 (human hepatocellular carcinoma); parameters: method as in PMID 30153471, PMID 33999337; conditions: MTT; results based on previous work; read-out: IC50 ± SEM, Hep G2; cited from earlier work
[9] = test system: NO production in LPS-IFN-γ-induced RAW 264.7 macrophages; experiment: NO production inhibition assay (Griess), RAW 264.7; assay type: cell-based, mouse
Method: (§3) Compounds 1–8 were screened for their inhibitory effects on nitric oxide production in LPS-IFN-γ activated RAW 264.7 macrophages and BV-2 microglial cells at a final concentration of 50 µM. […] A deprenylated furanoxanthone structure with ortho hydroxy group in ring B as in 7 might be important to enhance the inhibitory effect when compared to 6 and 8.
(§4) The iNOS inhibitory activity of the isolated compounds and respective cytotoxicity was determined using a previously described protocol. Briefly, BV-2 mouse microglial (25,000 cells/well) and RAW 264.7 mouse macrophage (100,000 cells/well) cell lines were seeded into 96-well plates in high glucose Dulbecco’s Modified Eagle’s Medium (DMEM, Gibco) containing 4 mM L-glutamine, 10% FBS, 2% HEPES, 1% penicillin/streptomycin, and 0.5% amphotericin B. After incubation for 24 h at 37 °C in a 5% CO2 humidified atmosphere, the cells were stimulated with 0.05% LPS (Sigma) and 0.025% interferon-γ (Roche Diagnostics, Mannheim, Germany) and treated with different concentrations (5–100 μM) of the tested compounds. The level of NO production in cell culture supernatants was determined using Griess reagent (Sigma) by photocolorimetric analysis after 16 h of incubation, using a Hidex Sense Microplate Reader (Hidex, Turku, Finland). Fifty microliters of XTT reagent (Sigma, Kit II) was then added into the same plates for cell viability measurement after 60 min incubation. L-NMMA (Alexis, Grünberg, Germany) 100 µM was used as the positive control, while 1% DMSO and digitonin (Roth, Karlsruhe, Germany) 400 µM were used as the vehicle and negative control, respectively. The assays were conducted in triplicates and repeated in two independent experiments. IC50 values were determined by graphical analysis using GraphPad Prism 7 (GraphPad Software, La Jolla, CA, USA).

[10] = Cytotoxicity (XTT cell viability), BV-2; assay type: cell-based; conditions: mouse, BV-2 microglial cells, LPS/IFN-γ-stimulated, LPS-IFN-γ-induced cells, mean ± SEM (n = 6)
Method: as §3, §4

[11] = test system: NO production in LPS-IFN-γ-induced BV-2 microglial cells; experiment: NO production inhibition assay (Griess), BV-2; assay type: cell-based, mouse
Method: as §3, §4

[12] = Cytotoxicity (XTT cell viability), RAW 264.7; assay type: cell-based; conditions: mouse, RAW 264.7 macrophage cells, LPS/IFN-γ-stimulated, LPS-IFN-γ-induced cells, mean ± SEM (n = 6)
Method: as §3, §4

[13] = test system: HeLa S3 (human cervical carcinoma); experiment: MTT cytotoxic activity assay, HeLa S3; assay type: cell-based; conditions: 72 h, mean ± SEM of three replicates
Method: (§5) The cytotoxic activity of the isolated compounds was evaluated using the MTT viability assay with doxorubicin as the positive control and the results are presented in Table 2.
(§6) The MTT colorimetric method was performed to evaluate cytotoxic activity of the isolated compounds against human epidermoid carcinoma (KB; ATCC CCL17), human cervical carcinoma (HeLa S3; ATCC CCL2-2), human colon adenocarcinoma (HT-29; ATCC HTB-38), human breast adenocarcinoma (MCF-7; ATCC HTB-22), and human hepatocellular carcinoma (Hep G2; ATCC HB-8065) cell lines according to the previous method. The cancer cells were cultured in MEM containing 10% fetal bovine serum in the presence of 100 U/mL penicillin and 100 μg/mL streptomycin sulphate (Gibco, Rockville, MD, USA), seeded in a 96-well plate (3000 cells/well), and pre-incubated at 37 °C for 24 h in a 5% CO2 humidified atmosphere. The tested compounds with serial concentrations (0.3–100 μM) were added and incubated for a further 72 h in the same condition. At the end of treatment, 20 µL of MTT solution (5 mg/mL in PBS, Sigma, St. Louis, MI, USA) was added to each well and further incubated for 3 h. After centrifugation at 1400 rpm for 5 min at 4 °C, the supernatant was decanted and DMSO (100 µL/well) was added to allow formazan product solubilization, which was subsequently measured by a microplate reader (Tecan Trading AG, Switzerland) at wavelength 550 nm. Control cells were treated with 0.1% DMSO. Doxorubicin (tested concentrations: 0.01–3.0 μM, Sigma) was used as the positive control. The results are expressed as the mean values of three replicates for three independent experiments. IC50 values were determined by graphical analysis using SigmaPlot 10 (Systat Software Inc., San Jose, CA, USA), obtained by plotting the cell viability percentage versus sample concentration.

[14] = test system: KB (human epidermoid carcinoma); experiment: MTT cytotoxic activity assay, KB; assay type: cell-based; conditions: 72 h, mean ± SEM of three replicates
Method: as §5, §6

[15] = final concentration of 50 µM, preliminary screen

Compound: CC(C)=CCc1c2c(c3oc4c(O)c(O)ccc4c(=O)c3c1O)C(C)(C)[C@H](C)O2 [Compound 8, formoxanthone C]
- IC50 [1]: 0.2 ± 0.1 µM
- IC50 [2]: < 10 µM
- IC50 ([3]; read-out: IC50 ± SEM, HT-29): 21.9 ± 1.2 µM
- IC50 [4]: 4.9 ± 0.4 µM
- IC50 [5]: 0.3 ± 0.1 µM
- inhibition at 20 µM [6]: < 10%
- inhibition at 20 µM [7]: 24 ± 15%
- IC50 [8]: 3.8 ± 0.5 µM

Compound: CC1(C)c2c(cc3oc4ccc(O)c(O)c4c(=O)c3c2O)O[C@@H]1CO [Compound 5, 3′-hydroxycalothorexanthone]
- IC50 ([9]; Mus musculus, RAW264.7, LPS-IFN-γ-induced, 16 h, mean ± SEM (n = 6), read-out: IC50, iNOS (inhibition of NO production), RAW 264.7): 16.4 ± 4.5 µM
- suppression of NO production, RAW 264.7 [9, 15]: over 70%
- IC50 at 16 h [10]: 74.7 ± 2.1 µM
- IC50 ([11]; Mus musculus, BV-2, LPS-IFN-γ-induced, 16 h, mean ± SEM (n = 6), read-out: IC50, iNOS (inhibition of NO production), BV-2): 13.8 ± 1.6 µM
- suppression of NO production, BV-2 [11, 15]: over 70%
- IC50 at 16 h [12]: > 200 µM

Compound: COc1cc(O)c2c(=O)c3ccc(O)c(OC)c3oc2c1 [Compound 14, 1,6-dihydroxy-3,5-dimethoxyxanthone]
- inhibition at 20 µM [6]: < 10%
- inhibition at 20 µM [7]: 18.3 ± 12.1%

Compound: [H]/N=C(/NC)NCCC[C@H](N)C(=O)O [L-NMMA, reference compound]
- inhibition at 100 µM ([9]; Mus musculus, RAW264.7, at 100 µM, read-out: inhibition of NO production, RAW 264.7 (positive control)): 64.1%
- inhibition at 100 µM ([11]; Mus musculus, BV-2, at 100 µM, read-out: inhibition of NO production, BV-2 (positive control)): 44.1%

Compound: O=c1c2cccc(O)c2oc2ccc(O)c(O)c12 [Compound 9, 1,2,5-trihydroxyxanthone]
- inhibition at 20 µM [6]: < 10%
- inhibition at 20 µM [7]: 22.6 ± 2.2%

Compound: COc1c(O)cc2c(c1O)C(=O)O[C@@H](c1ccccc1O)C2 [Compound 3, 2′-hydroxyannulatomarin]
- inhibition at 20 µM [6]: < 10%
- inhibition at 20 µM [7]: 24.2 ± 12.3%

Compound: C[C@@H]1Oc2cc(O)c3c(=O)c4cccc(O)c4oc3c2C1(C)C [Compound 6, pancixanthone B]
- IC50 [1]: 12.1 ± 0.1 µM
- IC50 ± SEM, HT-29 [3]: inactive
- IC50 [4]: 15.6 ± 0.3 µM
- IC50 [5]: 20.7 ± 0.6 µM
- inhibition at 20 µM [6]: < 10%
- inhibition at 20 µM [7]: 31.2 ± 21.7%
- IC50 [8]: 22.8 ± 0.4 µM

Compound: COc1c(O)cc2c(c1O)C(=O)O[C@@H](c1ccccc1)C2 [Compound 2, (−)-annulatomarin]
- % Inhibition at 20 µM, COX-2 [6]: 10.4 ± 5.0%
- inhibition at 20 µM [6]: > 10%
- inhibition at 20 µM [7]: < 10%

Compound: COc1c(O)ccc2c(=O)c3c(O)cc(O)cc3oc12 [Compound 13, 1,3,6-trihydroxy-5-methoxyxanthone]
- IC50 [13]: 15.2 ± 1.3 µM
- IC50 [14]: 11.4 ± 1.7 µM

Reference: article PMC8587515, “Cytotoxic and Anti-Inflammatory Activities of Dihydroisocoumarin and Xanthone Derivatives from Garcinia picrorhiza” (Molecules, 2021)
